Key:
SARS-CoV-2 3CL protease = SARS-CoV-2 3CL protease (Severe acute respiratory syndrome coronavirus 2, UniProt P0DTD1); experiment: Inhibitory activity test against SARS-CoV-2 3CL proteases; type: biochemical; conditions: read-out: IC50 (50% SARS-CoV-2 3CL protease inhibitory concentration)
SARS-CoV-2 [1] = experiment: Inhibitory activity of cytopathic effect (CPE) in Vero E6/TMPRSS2 cells; type: cell-based
SARS-CoV-2 [2] = experiment: Inhibitory activity of cytopathic effect (CPE) in HEK293T/ACE2-TMPRSS2 cells; type: cell-based; conditions: Severe acute respiratory syndrome coronavirus 2, HEK-293T, 72 h, HEK293T/ACE2-TMPRSS2 cells
[3] = Severe acute respiratory syndrome coronavirus 2, VeroE6/TMPRSS2, 72 h, 50% SARS-CoV-2 infected cell death inhibitory concentration, CellTiter-Glo 2.0 after 3 days culture
[4] = Severe acute respiratory syndrome coronavirus 2, VeroE6/TMPRSS2, 50% SARS-CoV-2 infected cell death inhibitory concentration, class symbols
[5] = cultured 3 days, CellTiter-Glo 2.0 luminescence, read-out: EC50 (50% SARS-CoV-2 infected cell death inhibitory concentration)
[6] = 50% SARS-CoV-2 infected cell death inhibitory concentration, CellTiter-Glo 2.0 after 3 days culture, read-out: EC50

| Structure (SMILES) | IC50 (SARS-CoV-2 3CL protease) [nM] | EC50 (SARS-CoV-2 [1]; [3]) [nM] | EC50 (SARS-CoV-2 [1]; [4]) [nM] | EC50 (SARS-CoV-2 [2]; [5]) [nM] | EC50 (SARS-CoV-2 [2]; [6]) [nM] |
| --- | --- | --- | --- | --- | --- |
| COc1cc(-c2cc3c(cc2Cl)NC(=O)C3)cc2c1c(=O)n(Cc1ncn(C)n1)c(=O)n2Cc1cc(F)c(F)c(F)c1 [Compound I-0139] | 4.5 | 3620 |  |  |  |
| COc1cc(-c2cc(C(=O)N3CCN(C)CC3)ccc2Cl)cc2c1c(=O)n(-c1cncc(C)c1)c(=O)n2Cc1ccc(F)c(C#N)c1 [Compound I-0208] | < 100 |  | 1000 to 10000 |  |  |
| COc1cc(-c2cc3c(cc2Cl)NC(=O)C3)cc2c1c(=O)n(-c1cncc(C)c1)c(=O)n2Cc1cc(F)c(F)c(F)c1 [Compound I-0058] | 1.5 | 194 |  |  |  |
| COc1cc(-c2cc3cn[nH]c3cc2Cl)cc2c1c(=O)n(-c1cncc(C)c1)c(=O)n2Cc1ccc(F)c(C#N)c1 [Compound I-0063] | < 100 |  | < 1000 |  |  |
| COc1cc(-c2cc(C#N)ccc2Cl)cc2c1c(=O)n(-c1cncc(C)c1)c(=O)n2Cc1ccc(F)c(C#N)c1 [Compound I-0027] | < 100 |  | < 1000 |  |  |
| COc1cc(-c2cc(C#N)ccc2Cl)cc2c1c(=O)n(Cc1ncn(C)n1)c(=O)n2Cc1cc(F)c(F)c(F)c1 [Compound I-0035] | 25 | 363 |  |  |  |
| Cc1cncc(-n2c(=O)c3c(Cl)cc(-c4cc(C(N)=O)ccc4Cl)cc3n(Cc3cc(F)c(F)c(F)c3)c2=O)c1 [Compound I-0007] | 19 | 1140 |  |  |  |
| COc1cc(-c2cc(C(N)=O)ccc2Cl)cc2c1c(=O)n(-c1cncc(C)c1)c(=O)n2Cc1cc(F)c(F)c(F)c1 [Compound I-0067] | < 100 |  | < 1000 |  |  |
| COc1cc(-c2cc(CO)ccc2Cl)cc2c1c(=O)n(-c1cncc(C)c1)c(=O)n2Cc1ccc(F)c(C#N)c1 [Compound I-0031] | < 100 |  | < 1000 |  |  |
| COc1cc(-c2cc3cn[nH]c3cc2Cl)cc2c1c(=O)n(-c1cncc(C)c1)c(=O)n2Cc1cc(C#N)ccc1Cl [Compound I-0170] | < 100 |  | < 1000 |  |  |
| O=c1[nH]cccc1Cn1c(=O)c2ccc3ccccc3c2n(Cc2cc(F)c(F)c(F)c2)c1=O [Compound I-0315] | 350 | 411 |  |  |  |
| COc1cc(-c2cc3cn[nH]c3cc2Cl)cc2c1c(=O)n(Cc1ncn(C)n1)c(=O)n2Cc1cc(F)c(F)c(Cl)c1 [Compound I-0264] | 2.6 | 349 |  |  |  |
| Cc1cncc(-n2c(=O)c3c(Cl)cc(-c4cc5c(cc4Cl)NC(=O)C5)cc3n(Cc3ccc(F)c(C#N)c3)c2=O)c1 [Compound I-0004] | 9.9 | 1160 |  |  |  |
| Cc1cncc(-n2c(=O)c3c(F)cc(-c4cc(CO)ccc4Cl)cc3n(Cc3cc(F)c(F)c(F)c3)c2=O)c1 [Compound I-0052] | < 100 |  | < 1000 |  |  |
| COCCNC(=O)c1ccc(Cl)c(-c2cc(OC)c3c(=O)n(-c4cncc(C)c4)c(=O)n(Cc4ccc(F)c(C#N)c4)c3c2)c1 [Compound I-0195] | < 100 |  | 1000 to 10000 |  |  |
| COc1cc(-c2cc3c(cc2Cl)NC(=O)C3)cc2c1c(=O)n(-c1cncc(C)c1)c(=O)n2Cc1cc(C#N)ccc1Cl [Compound I-0167] | 1.9 | 528 |  |  |  |
| COCc1ccc(Cl)c(-c2cc(OC)c3c(=O)n(-c4cncc(C)c4)c(=O)n(Cc4ccc(F)c(C#N)c4)c3c2)c1 [Compound I-0076] | 20 | 489 |  |  |  |
| COc1nc(N2CC[C@@H](C#N)C2)cc2c1c(=O)n(-c1cncc(Cl)c1)c(=O)n2-c1ccc(F)c(F)c1 [Compound I-0949] | < 100 |  |  | < 100 |  |
| Cn1cnc(Cn2c(=O)c3c4ncccc4c(-c4cc(C#N)ccc4Cl)cc3n(Cc3cc(F)c(F)c(F)c3)c2=O)n1 [Compound I-0632] | 3.1 |  |  |  | 50.1 |
| COc1nc(N2CC(F)C2)cc2c1c(=O)n(-c1cnc3cc(F)ccn13)c(=O)n2-c1ccc(F)c(Cl)c1 [Compound I-0987] | < 100 |  |  | < 100 |  |
| COc1nc(-c2cc(C#N)ccc2Cl)cc2c1c(=O)n(-c1cc(C)cnn1)c(=O)n2Cc1cc(F)c(F)c(F)c1 [Compound I-0929] | < 100 |  |  | < 100 |  |
| COc1nc2c(=O)n(Cc3ncn(C)n3)c(=O)n(Cc3cc(Cl)c(F)cc3C)c2cc1-c1nc(C)ccc1Cl [Compound I-0581] | < 100 |  |  | < 100 |  |
| COc1cc(-c2c(Cl)ccc3c2CCC(=O)N3C)cc2c1c(=O)n(Cc1ncn(C)n1)c(=O)n2Cc1cc(F)c(F)c(F)c1 [Compound I-0868] | 1.6 |  |  |  | 21.4 |
| COc1nc(N2CCC(F)(F)C2)cc2c1c(=O)n(-c1cncc(C)n1)c(=O)n2-c1ccc(F)c(Cl)c1 [Compound I-0997] | < 100 |  |  | < 100 |  |
| CC(C)=Cc1cc2c(c(=O)n(Cc3ncn(C)n3)c(=O)n2Cc2cc(F)c(F)c(Cl)c2)c2nccnc12 [Compound I-0572] | 37 |  |  |  | 28.3 |

| Structure (SMILES) | IC50 (SARS-CoV-2 3CL protease) [nM] | EC50 (SARS-CoV-2 [1]; [3]) [nM] | EC50 (SARS-CoV-2 [1]; [4]) [nM] | EC50 (SARS-CoV-2 [2]; [5]) [nM] | EC50 (SARS-CoV-2 [2]; [6]) [nM] |
| --- | --- | --- | --- | --- | --- |
| COc1nc(N2CCC(F)(F)C2)cc2c1c(=O)n(-c1cnc3cc(F)ccn13)c(=O)n2-c1ccc(F)c(Cl)c1 [Compound I-0728] | 5.1 |  |  |  | 7.65 |
| COc1nc2c(=O)n(Cc3ncn(C)n3)c(=O)n(Cc3cc(F)c(F)c(Cl)c3)c2cc1-c1nc(C(C)(C)O)ccc1Cl [Compound I-0880] | 4.4 |  |  |  | 17.8 |
| COc1nc(N2CC[C@@H](C(C)(C)O)C2)cc2c1c(=O)n(-c1cncc(Cl)c1)c(=O)n2-c1ccc(F)c(Cl)c1 [Compound I-1059] | < 100 |  |  | < 100 |  |
| [2H]C([2H])([2H])O[C@@H]1CCN(c2cc3c(c(OC)n2)c(=O)n(-c2cncc(F)c2)c(=O)n3-c2ccc(F)c(F)c2)C1 [Compound I-1028] | < 100 |  |  | < 100 |  |
| CNC(=O)c1nc(-c2cc3c(nc2OC)c(=O)n(Cc2ncn(C)n2)c(=O)n3Cc2cc(F)c(F)c(Cl)c2)c(Cl)cc1F [Compound I-0881] | < 100 |  |  | < 100 |  |
| Cn1cnc(Cn2c(=O)c3c(=O)n(C)c(N4CCC(F)(F)C4)cc3n(Cc3cc(F)c(F)c(Cl)c3)c2=O)n1 [Compound I-0931] | < 100 |  |  | 100 to 1000 |  |
| COc1nc(N2CC[C@@H](O)C2)cc2c1c(=O)n(-c1cnc3cc(F)c(Cl)cn13)c(=O)n2-c1ccc(F)c(Cl)c1 [Compound I-0952] | < 100 |  |  | < 100 |  |
| COc1ccc(Cl)c(-c2cc3c(nc2OC)c(=O)n(Cc2ncn(C)n2)c(=O)n3Cc2cc(F)c(F)c(Cl)c2)n1 [Compound I-0820] | < 100 |  |  | < 100 |  |
| CNC(=O)c1ccc(Cl)c(-c2cc3c(c4c2CCO4)c(=O)n(Cc2ncn(C)n2)c(=O)n3Cc2cc(F)c(F)c(Cl)c2)n1 [Compound I-0870] | < 100 |  |  | < 100 |  |
| Cn1cnc(Cn2c(=O)c3c(cc(-c4cc(C#N)ccc4Cl)n4ncnc34)n(Cc3cc(F)c(F)c(F)c3)c2=O)n1 [Compound I-0645] | 100 to 1000 |  |  | 100 to 1000 |  |
| COc1nc2c(=O)n(Cc3ncn(C)n3)c(=O)n(Cc3cc(Cl)cc(Cl)c3)c2cc1-c1cc(C#N)ccc1Cl [Compound I-0550] | < 100 |  |  | < 100 |  |
| Cn1cnc(Cn2c(=O)c3c4nccnc4c(N4CCCC4)cc3n(Cc3cc(F)c(F)c(F)c3)c2=O)n1 [Compound I-0932] | < 100 |  |  | < 100 |  |
| [2H]C([2H])([2H])O[C@@H]1CCN(c2cc3c(c(OC)n2)c(=O)n(-c2cnc4cc(F)ccn24)c(=O)n3-c2cc(Cl)c(F)c(OC)c2)C1 [Compound I-0764] | < 100 |  |  | < 100 |  |
| Cn1cnc(Cn2c(=O)c3c4nccnc4c(-c4cc5c(cc4Cl)NC(=O)C5)cc3n(Cc3cc(F)c(F)c(F)c3)c2=O)n1 [Compound I-0933] | < 100 |  |  | 100 to 1000 |  |
| O=c1c2c(=O)n(-c3cnc4cc(F)ccn34)c(=O)n(-c3ccc(F)c(Cl)c3)c2cc2n1C[C@@H]1CCCCN21 [Compound I-0988] | < 100 |  |  | 100 to 1000 |  |
| COc1nc(N2CC[C@@H](C(F)F)C2)cc2c1c(=O)n(-c1cnc3cc(F)ccn13)c(=O)n2-c1ccc(F)c(Cl)c1 [Compound I-0983] | < 100 |  |  | < 100 |  |
| COc1nc2c(=O)n(Cc3ncn(C)n3)c(=O)n(Cc3cc(Cl)c(F)cc3C)c2cc1-c1ncc(F)cc1Cl [Compound I-0580] | < 100 |  |  | < 100 |  |
| COc1nc(N2CC[C@@H](C#N)C2)cc2c1c(=O)n(-c1cncc(C#N)c1)c(=O)n2-c1ccc(F)c(F)c1 [Compound I-0984] | < 100 |  |  | < 100 |  |
| Cc1c(-c2cc(C#N)ccc2Cl)cc2c(c1F)c(=O)n(Cc1ncn(C)n1)c(=O)n2Cc1cc(F)c(F)c(Cl)c1 [Compound I-0637] | < 100 |  |  | < 100 |  |
| COc1nc(N2CC[C@@H](CO)C2)cc2c1c(=O)n(-c1cncc(Cl)c1)c(=O)n2-c1ccc(F)c(Cl)c1 [Compound I-0969] | < 100 |  |  | < 100 |  |
| COc1nc(N2CC[C@@H](C(=O)O)C2)cc2c1c(=O)n(-c1cnc3cc(F)ccn13)c(=O)n2-c1ccc(F)c(Cl)c1 [Compound I-0625] | < 100 |  |  | 100 to 1000 |  |
| COc1nc(N2CCC(F)(F)C2)cc2c1c(=O)n(-c1cncc(C#N)c1)c(=O)n2-c1ccc(F)c(Cl)c1 [Compound I-0977] | < 100 |  |  | < 100 |  |
| Cn1cnc(Cn2c(=O)c3c4nccnc4c(N4CC(F)(F)C(F)(F)C4)cc3n(Cc3cc(F)c(F)c(Cl)c3)c2=O)n1 [Compound I-0570] | 26 |  |  |  | 24.7 |
| Cn1c(-c2cc(C#N)ccc2Cl)cc2c(c1=O)c(=O)n(-c1cnc3cc(F)ccn13)c(=O)n2Cc1cc(F)c(F)c(F)c1 [Compound I-0727] | 1.1 |  |  |  | 102 |

From patent publication US20240400560A1, “BICYCLIC HETEROCYCLIC DERIVATIVE HAVING VIRAL GROWTH INHIBITORY ACTIVITY AND PHARMACEUTICAL COMPOSITION CONTAINING SAME” (Shionogi & Co., Ltd., priority 2021, published 2024)
